The values that follow come from ChEMBL document CHEMBL1156829 (Proc Natl Acad Sci U S A, 2008).

In data set [1] the test system is Plasmodium falciparum. The data set can be described thus: NOVARTIS: Inhibition of Plasmodium falciparum 3D7 (drug-susceptible) proliferation in erythrocyte-based infection assay. The class given is functional, organism-based. As to conditions: Plasmodium falciparum, 3D7.
The test system of data set [2] is Plasmodium falciparum. Nature of the data set: NOVARTIS: Inhibition of Plasmodium falciparum W2 (drug-resistant) proliferation in erythrocyte-based infection assay. It counts as functional, organism-based. As to conditions: Plasmodium falciparum, W2; read-out: EC50.
A short description of data set [3]: NOVARTIS: Cytotoxicity against human hepatocellular carcinoma cell line (Huh7). The class given is toxicity, cell-based, Huh-7. To be noted: Huh7 cells (hepatocellular carcinoma cell line).

For `CC1(C)Cc2c(oc3ncn(CCn4cnc5oc6c(c5c4=N)CC(C)(C)SC6)c(=N)c23)CS1`, the EC50 was greater than 12500 nM in the data set with Plasmodium falciparum [1] and 9740 nM with Plasmodium falciparum [2]. The compound further came in with a CC50 in data set [3] greater than 100000 nM.
In the case of `COc1cccc(-c2ccc(O)c(CNCCc3cccc(F)c3)c2)n1`, the EC50 was 1090 nM in the data set with Plasmodium falciparum [1] and 732 nM in the data set with Plasmodium falciparum [2]. This compound had a CC50 in data set [3] greater than 10000 nM.
For `COc1ccc(Cn2cccc(C(=O)Nc3ccc(OC)cc3)c2=O)cc1` the same measures were greater than 12500 nM, 3110 nM and 42500 nM.
For `CCOCCCNC(=O)C1CCCN(S(=O)(=O)c2ccc(C)cc2)C1` (stereo not drawn) the same measures were greater than 659 nM, greater than 730 nM and greater than 10000 nM.
`COc1ccc(-n2nc(C(=O)NCCC3=CCCCC3)c3ccccc3c2=O)cc1`: the EC50 is 7220 nM with Plasmodium falciparum [1] and greater than 9810 nM with Plasmodium falciparum [2]. In data set [3], this compound came in with a CC50 greater than 100000 nM.
On to `O=C(NCCCCCCNC(=O)Nc1nc(-c2ccc(F)cc2)cs1)Nc1nc(-c2ccc(F)cc2)cs1`, for which the EC50 with Plasmodium falciparum [1] came out at 5970 nM; in the data set on Plasmodium falciparum [2] it was 5060 nM. This compound yielded a CC50 in data set [3] of 51600 nM.
For `Cc1cc(N2CCC(C)CC2)nc2ccc(NC(=O)c3ccc([N+](=O)[O-])o3)cc12`, the figures for the EC50 in the data set on Plasmodium falciparum [1] and with Plasmodium falciparum [2] were 1660 nM and 2140 nM, respectively. This compound also displayed a CC50 in data set [3] of 21900 nM.
Turning to `Cc1nc2ccc(-c3ccc4nc(C)[nH]c4c3)cc2[nH]1`, the EC50 worked out at 2090 nM with Plasmodium falciparum [1] and 844 nM in the data set with Plasmodium falciparum [2]. The compound also gave a CC50 in data set [3] of 8630 nM.
In the case of `CC(C)CC(=O)OC1C(N2CCCCC2)c2c(ccc(/C=C/C(=O)N3CCCCC3)c2O)OC1(C)C` (stereo not drawn), the EC50 in the data set with Plasmodium falciparum [1] is 920 nM; with Plasmodium falciparum [2] it was 975 nM. The CC50 in data set [3] was greater than 10000 nM.
For `COCCn1nnnc1C(c1cc2cc3c(cc2[nH]c1=O)OCCO3)N1CCC(O)CC1` (stereo not drawn) the same measures were greater than 1250 nM, 974 nM and greater than 10000 nM.
The corresponding values for `CCOC(=O)c1c(NC(=O)CSc2nnc(CNC(=O)c3cccs3)n2-c2ccccc2OC)sc2c1CCC2` are greater than 619 nM, greater than 982 nM and greater than 10000 nM.
For the compound `O=C(NNc1nc(-c2cc3ccccc3oc2=O)cs1)c1ccccc1`, the EC50 in the data set on Plasmodium falciparum [1] was greater than 1250 nM; in the data set with Plasmodium falciparum [2], greater than 981 nM. For the same compound, the half-maximal cytotoxic concentration (CC50) in data set [3] is greater than 10000 nM.
For `CCCCSc1ncnc2c1c(-c1ccccc1)cn2-c1cccc(F)c1` the same measures were greater than 1250 nM, greater than 974 nM and greater than 10000 nM.
For `O=C(/C=C/c1ccccc1)c1c(-c2ccccc2)c2cc([N+](=O)[O-])ccc2[nH]c1=O` the same measures were greater than 1640 nM, greater than 976 nM and greater than 10000 nM.
On to `CCC(=O)NCc1nc2ccccc2n1Cc1ccc(C)cc1`, for which the EC50 with Plasmodium falciparum [1] is greater than 12500 nM; with Plasmodium falciparum [2], greater than 9760 nM. Moreover, the CC50 in data set [3] is greater than 100000 nM.
The corresponding values for `COc1ccc(CNC(=O)C(Cc2c[nH]c3ccccc23)N2CCS(=O)(=O)CC2)cc1` (stereo not drawn) are 851 nM, 784 nM and 8040 nM.
The corresponding values for `CCc1ccc(C=NNC(=O)COc2ccc3c(c2)OCO3)cc1` are greater than 1230 nM, greater than 975 nM and greater than 10000 nM.
For `O=C(Oc1ccc(-c2ccc(OC(=O)c3ccco3)cc2)cc1)c1ccco1` the same measures were greater than 738 nM, 973 nM and greater than 10000 nM.
As to `CCOc1cc(Br)cc(/C=C2\NC(=S)NC2=O)c1O`, the figures for the EC50 in the data set with Plasmodium falciparum [1] and in the data set on Plasmodium falciparum [2] were greater than 1250 nM and greater than 973 nM, respectively. For the same compound, the CC50 in data set [3] is greater than 10000 nM.
With `NC12CC3CC(C1)CC(SSC14CC5CC(CC(N)(C5)C1)C4)(C3)C2`, the EC50 in the data set with Plasmodium falciparum [1] worked out at 208 nM; in the data set with Plasmodium falciparum [2], 191 nM. In addition, the CC50 in data set [3] stood at 1960 nM.
For `COc1cc(OC)c(N(C)S(=O)(=O)c2cccc(C(=O)OCC(=O)Nc3ccccc3C(C)=O)c2)cc1Cl` the same measures were 8400 nM, 7310 nM and greater than 100000 nM.
